Test results published in US4472304A, “(Amido)N-substituted bleomycins, salts thereof and process for preparation thereof” (Nippon Kayaku Kabushiki Kaisha, priority 1981, dated 1984).

What was measured:
[1] = system: Mycobacterium smegmatis ATCC 607; assay: Antimicrobial activity against Mycobacterium smegmatis ATCC 607 (agar plate-cylinder); format: cell-based; conditions: standard bleomycin A2 (copper-free) assumed 1,000 mcg potency/mg
Description: (§1) 2. ANT[…] MYC[…] ATCC 607 AND BACILLUS SUBTILIS
(§2) The antimicrobial activity was tested against the captioned test organisms by the method of agar plate-cylinder. The activity was recorded on the assumption that the activity of standard sample of bleomycin A2 (copper-free form) is 1,000 mcg poteney/mg.

[2] = system: Bacillus subtilis; assay: Antimicrobial activity against Bacillus subtilis (agar plate-cylinder); format: cell-based; conditions: standard bleomycin A2 (copper-free) assumed 1,000 mcg potency/mg
Description: as §1, §2

[3] = system: pulmonary fibrosis; assay: Pulmonary toxicity (pulmonary fibrosis) in mice; conditions: for Incidence: Number of mice with pulmonary fibrosis (%) / Incidence: Number of mice with pulmonary fibrosis / Grade: Total score of pulmonary fibrosis/total number of samples / Grade: Total score of pulmonary fibrosis/total number of samples (%): ICR mice, 5 mg/kg i.p. once a day for 10 days; for Incidence: Number of mice with pulmonary fibrosis (%) / Incidence: Number of mice with pulmonary fibrosis: 5 weeks observation; for Incidence: Number of mice with pulmonary fibrosis: mice with fibrosis/total; for Grade: Total score of pulmonary fibrosis/total number of samples / Grade: Total score of pulmonary fibrosis/total number of samples (%): points 0, 1, 2, 4, 6; for Ratio (by comparison with "Bleomycin Complex"): versus Bleomycin Complex

SMILES | Antimicrobial potency of Cu-free compound against Mycobacterium smegmatis ATCC 607 [1] [mcg potency/mg] | Antimicrobial potency of Cu-free compound against Bacillus subtilis [2] [mcg potency/mg] | Incidence: Number of mice with pulmonary fibrosis (%) [3] [%] | Incidence: Number of mice with pulmonary fibrosis [3] | Grade: Total score of pulmonary fibrosis/total number of samples [3] | Grade: Total score of pulmonary fibrosis/total number of samples (%) [3] [%] | Ratio (by comparison with "Bleomycin Complex") [3]
Cc1c(N)nc(C(CC(N)=O)NCC(N)C(=O)NCCCN(C)CCCNCCc2ccc(Cl)cc2)nc1C(=O)NC(C(=O)NC(C)C(O)C(C)C(=O)NC(C(=O)NCCc1nc(-c2nc(C(=O)NCCCN(C)CCCNCCc3ccc(Cl)cc3)cs2)cs1)C(C)O)C(OC1OC(CO)C(O)C(O)C1OC1OC(CO)C(O)C(OC(N)=O)C1O)c1cnc[nH]1 (stereo not shown) [Compound 45, 3-{N--methyl-N--[3-(2-(p-chlorophenyl)ethyl)aminopropyl]amino}-propylamino(amido)N--{3-[N-- methyl-N--[3-(2-(p-chlorophenyl)-ethyl)aminopropyl]amino]propyl}-BLM] | 650 | 270 | 0 | 0/9 | 0/27 | 0 | 0
Cc1c(N)nc(C(CC(N)=O)NCC(N)C(=O)NCCCNC(C)c2ccccc2)nc1C(=O)NC(C(=O)NC(C)C(O)C(C)C(=O)NC(C(=O)NCCc1nc(-c2nc(C(=O)NCCC[N+](C)(CCCN(Cc3ccccc3)Cc3ccccc3)Cc3ccccc3)cs2)cs1)C(C)O)C(OC1OC(CO)C(O)C(O)C1OC1OC(CO)C(O)C(OC(N)=O)C1O)c1cnc[nH]1 [Compound 47, 3-{N--methyl-N--benzyl-N--[3-(dibenzylamino)propylamino}-propylamino-(amido)N--[3-((S)-1'-phenylethyl)aminopropyl]-BLM] | 5900 | 180 | 0 | 0/8 | 0/24 | 0 | 0
CCCCCCCCNC(=O)C(N)CNC(CC(N)=O)c1nc(N)c(C)c(C(=O)NC(C(=O)NC(C)C(O)C(C)C(=O)NC(C(=O)NCCc2nc(-c3nc(C(=O)NCCC[N+](C)(CCCN(Cc4ccccc4)Cc4ccccc4)Cc4ccccc4)cs3)cs2)C(C)O)C(OC2OC(CO)C(O)C(O)C2OC2OC(CO)C(O)C(OC(N)=O)C2O)c2cnc[nH]2)n1 (stereo not shown) [Compound 48, 3-{N--methyl-N--benzyl-N--[3-dibenzylamino)proplyamino}-propylamino-(amido)N--[octyl]-BLM] | 2580 | 130 | 0 | 0/8 | 0/24 | 0 | 0
Cc1c(N)nc(C(CC(N)=O)NCC(N)C(=O)NCCC[N+](C)(CCCN(Cc2ccccc2)Cc2ccccc2)Cc2ccccc2)nc1C(=O)NC(C(=O)NC(C)C(O)C(C)C(=O)NC(C(=O)NCCc1nc(-c2nc(C(=O)NCCC[N+](C)(CCCN(Cc3ccccc3)Cc3ccccc3)Cc3ccccc3)cs2)cs1)C(C)O)C(OC1OC(CO)C(O)C(O)C1OC1OC(CO)C(O)C(OC(N)=O)C1O)c1cnc[nH]1 (stereo not shown) [Compound 49, 3-{N--methyl-N--benzyl-N--[3-(dibenzylamino)propylamino}-propylamino-(amido)N--{3-{N--methyl-N--benzyl-N--[3-dibenzyl-amino)propyl]amino}propyl}-BLM] | 230 | 1 | 0 | 0/3 | 0/9 | 0 | 0
Cc1c(N)nc(C(CC(N)=O)NCC(N)C(=O)NCc2ccccc2)nc1C(=O)NC(C(=O)NC(C)C(O)C(C)C(=O)NC(C(=O)NCCc1nc(-c2nc(C(=O)NCCC[N+](C)(CCCN(Cc3ccccc3)Cc3ccccc3)Cc3ccccc3)cs2)cs1)C(C)O)C(OC1OC(CO)C(O)C(O)C1OC1OC(CO)C(O)C(OC(N)=O)C1O)c1cnc[nH]1 (stereo not shown) [Compound 51, 3-{N--methyl-N--benzyl-N--[3-(dibenzylamino)propyl]amino}-propylamino-(amido)N--[benzyl]-BLM] | 24461 | 410 | 0 | 0/8 | 0/24 | 0 | 0
CCCCN(CCCC)CCCNC(=O)C(N)CNC(CC(N)=O)c1nc(N)c(C)c(C(=O)NC(C(=O)NC(C)C(O)C(C)C(=O)NC(C(=O)NCCc2nc(-c3nc(C(=O)NCCC[N+](C)(C)CCCN(Cc4ccccc4)Cc4ccccc4)cs3)cs2)C(C)O)C(OC2OC(CO)C(O)C(O)C2OC2OC(CO)C(O)C(OC(N)=O)C2O)c2cnc[nH]2)n1 (stereo not shown) [Compound 54] | 32633 | 2663 | 0 | 0/9 | 0/27 | 0 | 0
CC[N+](CC)(CCCNC(=O)c1csc(-c2csc(CCNC(=O)C(NC(=O)C(C)C(O)C(C)NC(=O)C(NC(=O)c3nc(C(CC(N)=O)NCC(N)C(=O)NCCCNC(C)c4ccccc4)nc(N)c3C)C(OC3OC(CO)C(O)C(O)C3OC3OC(CO)C(O)C(OC(N)=O)C3O)c3cnc[nH]3)C(C)O)n2)n1)CCCN(Cc1ccccc1)Cc1ccccc1 [Compound 55, 3-{N,N--diethyl-N--[3-(dibenzylamino)propyl]amino}-propyl-amino-(amido)N--[3-((S)-1'-phenylethyl)aminopropyl]-BLM] | 20840 | 2150 | 0 | 0/9 | 0/27 | 0 | 0
CCCCCCCCNC(=O)C(N)CNC(CC(N)=O)c1nc(N)c(C)c(C(=O)NC(C(=O)NC(C)C(O)C(C)C(=O)NC(C(=O)NCCc2nc(-c3nc(C(=O)NCCC[N+](CC)(CC)CCCN(Cc4ccccc4)Cc4ccccc4)cs3)cs2)C(C)O)C(OC2OC(CO)C(O)C(O)C2OC2OC(CO)C(O)C(OC(N)=O)C2O)c2cnc[nH]2)n1 (stereo not shown) [Compound 56, 3-{N,N--diethyl-N--[3-(dibenzylamino)propyl]amino}propylamino-(amido)N--[octyl]-BLM] | 41380 | 520 | 0 | 0/9 | 0/27 | 0 | 0
CCCCN(CCCC)CCCNC(=O)C(N)CNC(CC(N)=O)c1nc(N)c(C)c(C(=O)NC(C(=O)NC(C)C(O)C(C)C(=O)NC(C(=O)NCCc2nc(-c3nc(C(=O)NCCCN(C)CCCNCC4CCCCCCC4)cs3)cs2)C(C)O)C(OC2OC(CO)C(O)C(O)C2OC2OC(CO)C(O)C(OC(N)=O)C2O)c2cnc[nH]2)n1 (stereo not shown) [Compound 58, 3-[N--methyl-N--[3-(cyclooctylmethylamino)propyl]amino}-propylamino-(amido)N--[3-(di-n-butyamino)propyl]-BLM] | 62418 | 5518 | 0 | 0/9 | 0/27 | 0 | 0
CCCCCCCCNC(=O)C(N)CNC(CC(N)=O)c1nc(N)c(C)c(C(=O)NC(C(=O)NC(C)C(O)C(C)C(=O)NC(C(=O)NCCc2nc(-c3nc(C(=O)NCCCN(C)CCCNCC4CCCCCCC4)cs3)cs2)C(C)O)C(OC2OC(CO)C(O)C(O)C2OC2OC(CO)C(O)C(OC(N)=O)C2O)c2cnc[nH]2)n1 (stereo not shown) [Compound 59, 3-{N--methyl-N--[3-(cyclooctylmethylamino)propyl]amino}propyl-amino-(amido)N--[octyl]-BLM] | 65733 | 5473 | 0 | 0/9 | 0/27 | 0 | 0
